Values quoted from earlier work, collected in PMC6835763, “Influence of Short Cationic Lipopeptides with Fatty Acids of Different Chain Lengths on Bacterial Biofilms Formed on Polystyrene and Hydrogel Surfaces” (Pharmaceutics, 2019).

What was measured:
Details in all cases: cited from earlier work
[1] = system: PM biofilm
Text: (§1) They were ineffective against PM, which was difficult to eradicate with peptides (and antibiotics) in previously performed studies. PM can cause infections of the urinary tract, skin, subcutaneous tissue, and wounds. PM is known as a biofilm former, and an evident increase of PM resistance to broad-spectrum fluoroquinolones and cephalosporins has been observed. In the previous study, mature PM b ...

[2] = system: EC biofilm
Text: as §1

[3] = system: PA biofilm
Text: as §1

[4] = system: SA biofilms; parameters: method as in PMID 24779193

Substance | susceptibility of mature PM biofilms [1] | also measured
C16-RR-NH2 [Lipopeptide C16-RR-NH2] | resistant | 
citropin 1.1 | resistant | 
neomycin | resistant | activity against EC biofilms [2]: rather weak activity; activity against PA biofilm [3]: weak antibiofilm agents; susceptibility of SA biofilms [4]: resistant
omiganan | resistant | 
pexiganan | resistant | 
polymyxin B |  | concentration eradicating the PM biofilm ([1]; mature PM biofilms): 512 µg/mL
